Test results from US12246040B2, “Human homogeneous amniotic fluid stem cell lines and uses thereof” (priority 2018, dated 2025).

Experiments:
Format in all cases: cell-based
[1] = tested on: homogeneous human amniotic fluid clonal stem cells; test: In vitro neural differentiation with pharmacological agent screening; conditions: neural induction 21 days; results not shown
[2] = tested on: homogeneous human amniotic fluid clonal stem cells; test: In vitro osteocyte differentiation with pharmacological agent screening; conditions: results not shown
[3] = tested on: homogeneous human amniotic fluid clonal stem cells; test: In vitro chondrocyte differentiation with pharmacological agent screening; conditions: 21 days; results not shown

Row | SMILES | effect on neural / neurological development [1] | effect on bone development / osteogenic differentiation [2] | effect on chondrogenic differentiation [3]
1 | O=S(=O)([O-])[O-].[Mg+2] [MgSO4] | minimal or no effect | minimal or no effect | minimal or no effect
2 | CCCC(CCC)C(=O)O [VPA, valproic acid] | decreases | does not affect | does not affect
